Laboratory results: article PMC11033320, “Activation of p53 signaling and regression of breast and prostate carcinoma cells by spirooxindole-benzimidazole small molecules” (Frontiers in Pharmacology, 2024)

Legend:
PC-3 cells = assay: MTT assay anticancer activity, PC-3; type: cell-based; conditions: Homo sapiens, PC-3, 5 µM, mean ± SEM, read-out: growth inhibition percentage of PC-3
Text: MTT method was done as described above.

MOLT-4 = assay: NCI anticancer screening, Leukemia MOLT-4; type: cell-based; conditions: Homo sapiens; MOLT-4, 10 μM; read-out: % Growth Inhibition (GI %)
Text: (§1) The compound has been processed according to standard method NCI-60 Human Tumor Cell Lines Screen for organic compound at development therapeutic program (DTP). Requests for access to this national resource can be submitted online at: […]

SF-268 = assay: NCI anticancer screening, CNS Cancer SF-268; type: cell-based; conditions: Homo sapiens; SF-268, 10 μM; read-out: % Growth Inhibition (GI %)
Text: as §1

U251 = assay: NCI anticancer screening, CNS Cancer U251; type: cell-based; conditions: Homo sapiens, U-251; U251, 10 μM; read-out: % Growth Inhibition (GI %)
Text: as §1

A549/ATCC = assay: NCI anticancer screening, Non-Small Cell Lung Cancer A549/ATCC; type: cell-based; conditions: Homo sapiens, read-out: % Growth Inhibition (GI %)
Text: as §1

HCT-15 = assay: NCI anticancer screening, Colon Cancer HCT-15; type: cell-based; conditions: Homo sapiens; HCT-15, 10 μM; read-out: % Growth Inhibition (GI %)
Text: as §1

SK-MEL-2 = assay: NCI anticancer screening, Melanoma SK-MEL-2; type: cell-based; conditions: Homo sapiens; SK-MEL-2, 10 μM; read-out: % Growth Inhibition (GI %)
Text: as §1

HOP-92 = assay: NCI anticancer screening, Non-Small Cell Lung Cancer HOP-92; type: cell-based; conditions: Homo sapiens; HOP-92, 10 μM; read-out: % Growth Inhibition (GI %)
Text: as §1

SF-295 = assay: NCI anticancer screening, CNS Cancer SF-295; type: cell-based; conditions: Homo sapiens; SF-295, 10 μM; read-out: % Growth Inhibition (GI %)
Text: as §1

T-47D = assay: NCI anticancer screening, Breast Cancer T-47D; type: cell-based; conditions: Homo sapiens, T47D, read-out: % Growth Inhibition (GI %)
Text: as §1

BT-549 = assay: NCI anticancer screening, Breast Cancer BT-549; type: cell-based; conditions: Homo sapiens; BT-549, 10 μM; read-out: % Growth Inhibition (GI %)
Text: as §1

CAKI-1 = assay: NCI anticancer screening, Renal Cancer CAKI-1; type: cell-based; conditions: Homo sapiens; CAKI-1, 10 μM; read-out: % Growth Inhibition (GI %)
Text: as §1

SW-620 = assay: NCI anticancer screening, Colon Cancer SW-620; type: cell-based; conditions: Homo sapiens; SW-620, 10 μM; read-out: % Growth Inhibition (GI %)
Text: as §1

MDA-MB 231 cells = conditions: for inhibition: 5 µM
Description: Anticancer effect of the above-mentioned compounds was assayed using three human cancer cell lines. Triple negative breast cancer cell line (MDA-MB 231) and prostate cancer cell line (PC3) were cultured in DMEM (Lonza, USA) supplemented with 10% FBS. All cancer cells (4x10^3 cells/well) were seeded in sterile 96-well plates. After 24h, serial concentrations of the tested compounds were incubated with three cancer cell lines for 72 h at 37 °C in 5% CO2 incubator. […] The half maximal inhibitory concentration (IC50) values were calculated using the Graphpad Instat software.

TK-10 = assay: NCI anticancer screening, Renal Cancer TK-10; type: cell-based; conditions: Homo sapiens; TK-10, 10 μM; read-out: % Growth Inhibition (GI %)
Text: as §1

786-0 = assay: NCI anticancer screening, Renal Cancer 786-0; type: cell-based; conditions: Homo sapiens; 786-0, 10 μM; read-out: % Growth Inhibition (GI %)
Text: as §1

M14 = assay: NCI anticancer screening, Melanoma M14; type: cell-based; conditions: Homo sapiens; M14, 10 μM; read-out: % Growth Inhibition (GI %)
Text: as §1

SR = assay: NCI anticancer screening, Leukemia SR; type: cell-based; conditions: Homo sapiens, read-out: % Growth Inhibition (GI %)
Text: as §1

OVCAR-5 = assay: NCI anticancer screening, Ovarian Cancer OVCAR-5; type: cell-based; conditions: Homo sapiens; OVCAR-5, 10 μM; read-out: % Growth Inhibition (GI %)
Text: as §1

SK-MEL-28 = assay: NCI anticancer screening, Melanoma SK-MEL-28; type: cell-based; conditions: Homo sapiens; SK-MEL-28, 10 μM; read-out: % Growth Inhibition (GI %)
Text: as §1

SN12C = assay: NCI anticancer screening, Renal Cancer SN12C; type: cell-based; conditions: Homo sapiens, read-out: % Growth Inhibition (GI %)
Text: as §1

SNB-75 = assay: NCI anticancer screening, CNS Cancer SNB-75; type: cell-based; conditions: Homo sapiens; SNB-75, 10 μM; read-out: % Growth Inhibition (GI %)
Text: as §1

UACC-62 = assay: NCI anticancer screening, Melanoma UACC-62; type: cell-based; conditions: Homo sapiens; UACC-62, 10 μM; read-out: % Growth Inhibition (GI %)
Text: as §1

NCI-H322M = assay: NCI anticancer screening, Non-Small Cell Lung Cancer NCI-H322M; type: cell-based; conditions: Homo sapiens, read-out: % Growth Inhibition (GI %)
Text: as §1

K-562 = assay: NCI anticancer screening, Leukemia K-562; type: cell-based; conditions: Homo sapiens, K562; K-562, 10 μM; read-out: % Growth Inhibition (GI %)
Text: as §1

MDA-MB-468 = assay: NCI anticancer screening, Breast Cancer MDA-MB-468; type: cell-based; conditions: Homo sapiens, read-out: % Growth Inhibition (GI %)
Text: as §1

MCF7 = assay: NCI anticancer screening, Breast Cancer MCF7; type: cell-based; conditions: Homo sapiens; MCF7, 10 μM; read-out: % Growth Inhibition (GI %)
Text: as §1

HOP-62 = assay: NCI anticancer screening, Non-Small Cell Lung Cancer HOP-62; type: cell-based; conditions: Homo sapiens; HOP-62, 10 μM; read-out: % Growth Inhibition (GI %)
Text: as §1

HCC-2998 = assay: NCI anticancer screening, Colon Cancer HCC-2998; type: cell-based; conditions: Homo sapiens; HCC-2998, 10 μM; read-out: % Growth Inhibition (GI %)
Text: as §1

OVCAR-3 = assay: NCI anticancer screening, Ovarian Cancer OVCAR-3; type: cell-based; conditions: Homo sapiens; OVCAR-3, 10 μM; read-out: % Growth Inhibition (GI %)
Text: as §1

NCI-H522 = assay: NCI anticancer screening, Non-Small Cell Lung Cancer NCI-H522; type: cell-based; conditions: Homo sapiens; NCI-H522, 10 μM; read-out: % Growth Inhibition (GI %)
Text: as §1

SNB-19 = assay: NCI anticancer screening, CNS Cancer SNB-19; type: cell-based; conditions: Homo sapiens; SNB-19, 10 μM; read-out: % Growth Inhibition (GI %)
Text: as §1

NCI-H460 = assay: NCI anticancer screening, Non-Small Cell Lung Cancer NCI-H460; type: cell-based; conditions: Homo sapiens; NCI-H460, 10 μM; read-out: % Growth Inhibition (GI %)
Text: as §1

EKVX = assay: NCI anticancer screening, Non-Small Cell Lung Cancer EKVX; type: cell-based; conditions: Homo sapiens, read-out: % Growth Inhibition (GI %)
Text: as §1

CCRF-CEM = assay: NCI anticancer screening, Leukemia CCRF-CEM; type: cell-based; conditions: Homo sapiens, read-out: % Growth Inhibition (GI %)
Text: as §1

HL-60(TB) = assay: NCI anticancer screening, Leukemia HL-60(TB); type: cell-based; conditions: Homo sapiens, read-out: % Growth Inhibition (GI %)
Text: as §1

KM12 = assay: NCI anticancer screening, Colon Cancer KM12; type: cell-based; conditions: Homo sapiens; KM12, 10 μM; read-out: % Growth Inhibition (GI %)
Text: as §1

Compound	inhibition at 5 µM (PC-3 cells) [%]	inhibition at 10 µM (MOLT-4) [%]	inhibition at 10 µM (SF-268) [%]	inhibition at 10 µM (U251) [%]	inhibition at 10 µM (A549/ATCC) [%]	inhibition at 10 µM (HCT-15) [%]	inhibition at 10 µM (SK-MEL-2) [%]	inhibition at 10 µM (HOP-92) [%]	inhibition at 10 µM (SF-295) [%]	inhibition at 10 µM (T-47D) [%]	inhibition at 10 µM (BT-549) [%]	inhibition at 10 µM (CAKI-1) [%]	inhibition at 10 µM (SW-620) [%]	IC50 (MDA-MB 231 cells) [µM]	inhibition (MDA-MB 231 cells) [%]	inhibition at 10 µM (TK-10) [%]	inhibition at 10 µM (786-0) [%]	inhibition at 10 µM (M14) [%]	inhibition at 10 µM (SR) [%]	inhibition at 10 µM (OVCAR-5) [%]	also measured
O=C(c1nc2ccccc2[nH]1)[C@H]1[C@H](c2ccccc2)C2CSCN2[C@]12C(=O)Nc1ccccc12 (mixture of isomers) [Compound 6a, (3S,6′R)-6'-(1H-benzo [d]imidazole-2-carbonyl)-7′-phenyl-3′,6′,7′,7a′-tetrahydro-1′H-spiro [indoline-3.5′-pyrrolo [1,2-c]thiazol]-2-one]	> 50	100	98.1	93.9	98.7	109	101	95.5	104	88	102	86	97.8	2.97 ± 0.047	55.5 ± 0.761	110	102	107	94.2	104	inhibition at 10 µM (SK-MEL-28): 103%; inhibition at 10 µM (SN12C): 106%; inhibition at 10 µM (SNB-75): 79.8%; inhibition at 10 µM (UACC-62): 95.7%; inhibition at 10 µM (NCI-H322M): 98.1%; inhibition at 10 µM (K-562): 105%; inhibition at 10 µM (MDA-MB-468): 100%; inhibition at 10 µM (MCF7): 98.1%; inhibition at 10 µM (HOP-62): 99.3%; inhibition at 10 µM (HCC-2998): 109%; inhibition at 10 µM (OVCAR-3): 110%; inhibition at 10 µM (NCI-H522): 93.7%; inhibition at 10 µM (SNB-19): 97%; inhibition at 10 µM (NCI-H460): 106%; inhibition at 10 µM (EKVX): 106%; inhibition at 10 µM (CCRF-CEM): 111%; inhibition at 10 µM (HL-60(TB)): 101%; inhibition at 10 µM (KM12): 105%
Cc1ccc([C@@H]2C3CSCN3[C@]3(C(=O)Nc4ccccc43)[C@H]2C(=O)c2nc3ccccc3[nH]2)cc1 (mixture of isomers) [Compound 6d, (3S,6′R)-6'-(1H-Benzo [d]imidazole-2-carbonyl)-7'-(p-tolyl)-3′,6′,7′,7a′-tetrahydro-1′H-spiro [indoline-3.5′-pyrrolo [1,2-c]thiazol]-2-one]	> 50	78.5	64	73.3	75.4	83.6	93.6	87	59	68.8	96.2	54.5	92	4.3 ± 0.137	51.7 ± 1.3	94.5	86.1	74.7	102	95.2	inhibition at 10 µM (SK-MEL-28): 98.8%; inhibition at 10 µM (SN12C): 85.2%; inhibition at 10 µM (SNB-75): 61.4%; inhibition at 10 µM (UACC-62): 78%; inhibition at 10 µM (NCI-H322M): 83.1%; inhibition at 10 µM (K-562): 81.6%; inhibition at 10 µM (MDA-MB-468): 63.5%; inhibition at 10 µM (MCF7): 70.4%; inhibition at 10 µM (HOP-62): 105%; inhibition at 10 µM (HCC-2998): 94.9%; inhibition at 10 µM (OVCAR-3): 89%; inhibition at 10 µM (NCI-H522): 84.3%; inhibition at 10 µM (SNB-19): 80.3%; inhibition at 10 µM (NCI-H460): 84.5%; inhibition at 10 µM (EKVX): 71.6%; inhibition at 10 µM (CCRF-CEM): 89.5%; inhibition at 10 µM (HL-60(TB)): 96.2%; inhibition at 10 µM (KM12): 75.4%
